Values of other authors, collected in patent US6340756B1, “Process for preparing a 2-(2-amino-1, 6-dihydro-6-oxo-purin-9-yl)methoxy-1,3-propanediol derivative” (Syntex (U.S.A.) Inc., priority 1996, dated 2002).

What was measured:
[1] = rats, urinary recovery of acyclovir, Beauchamp et al. 1992
[2] = EP 0 694 547 A
[3] = EP 0 694 547 A; remark: listed apart in the source
[4] = EP 0 308 065 A2

SMILES | amount of the parent drug (acyclovir) in the urine compared with acyclovir itself [1] | also measured
CC[C@H](N)C(=O)OCCOCn1cnc2c(=O)[nH]c(N)nc21 | greater amounts of the parent drug in the urine than acyclovir itself | 
CC(N)C(=O)OCCOCn1cnc2c(=O)[nH]c(N)nc21 (racemic) [D,L-alanyl] | greater amounts of the parent drug in the urine than acyclovir itself | 
CC(C)C(N)C(=O)OCCOCn1cnc2c(=O)[nH]c(N)nc21 (racemic) [D,L-valyl] | greater amounts of the parent drug in the urine than acyclovir itself | 
CCC(C)C(N)C(=O)OCCOCn1cnc2c(=O)[nH]c(N)nc21 (racemic) [DL-isoleucyl] | greater amounts of the parent drug in the urine than acyclovir itself | 
CC(C)[C@@H](N)C(=O)OCC(CO)OCn1cnc2c(O)nc(N)nc21 (stereo partly drawn) [2-(2-amino-1,6-dihydro-6-oxo-purin-9-yl)methoxy-3-hydroxy-1-propyl-L-valinate] |  | oral absorption [2]: improved oral absorption; toxicity [3]: low toxicity
C[C@H](N)C(=O)OCCOCn1cnc2c(=O)[nH]c(N)nc21 [L-alanyl] | greater amounts of the parent drug in the urine than acyclovir itself | 
CC[C@H](C)[C@H](N)C(=O)OCCOCn1cnc2c(=O)[nH]c(N)nc21 [L-isoleucyl] | greater amounts of the parent drug in the urine than acyclovir itself | 
CSCC[C@H](N)C(=O)OCCOCn1cnc2c(=O)[nH]c(N)nc21 [L-methionyl] | greater amounts of the parent drug in the urine than acyclovir itself | 
Nc1nc2c(ncn2COCCOC(=O)C2CCCN2)c(=O)[nH]1 [L-prolyl] | greater amounts of the parent drug in the urine than acyclovir itself | 
CC(C)[C@H](N)C(=O)OCCOCn1cnc2c(=O)nc(N)[nH]c21 [L-valyl] | greater amounts of the parent drug in the urine than acyclovir itself | rank as prodrug among the esters investigated ([1]; eighteen amino acid esters): best prodrug
NCC(=O)OCCOCn1cnc2c(=O)[nH]c(N)nc21 [glycyl] | greater amounts of the parent drug in the urine than acyclovir itself | 
CC(C)[C@H](N)C(=O)OCCOCn1cnc2c(=O)nc(N)[nH]c21 [valine ester of acyclovir] |  | absorption from the gut after oral administration, compared with other esters and acyclovir [4]: large increase in absorption
